Experimental data: patent EP4768499A1, “MACROCYCLIC PEPTIDE COMPOUND HAVING CELL MEMBRANE PERMEABILITY AND METABOLIC STABILITY, AND LIBRARY CONTAINING SAME” (Chugai Seiyaku Kabushiki Kaisha, priority 2023, dated 2025)
Starred links: 1 amine or outer side, 2 acyl side, 3 side chain; linkers in the order of their positions; H or OH if unused. Positions of bridges follow the written chain, without caps; N, C: chain ends. Non-standard residues stand in square brackets, D forms with d. Residues, ends and D or L forms follow the SMILES beside them. *: point of attachment. NMeF = CN[C@@H](Cc1ccccc1)C(=O)O; NMeGABA = CN(CCCC(=O)[*:2])[*:1]; NMeI = CC[C@H](C)[C@H](NC)C(=O)O; NMeT = CN[C@H](C(=O)O)[C@@H](C)O; hPhe = N[C@@H](CCc1ccccc1)C(=O)O; NMeβAla = CN(CCC(=O)[*:2])[*:1]; NMeD = CN[C@@H](CC(=O)O)C(=O)O; NMeL = CN[C@@H](CC(C)C)C(=O)O; NMeV = CN[C@H](C(=O)O)C(C)C; d(β3hA) = C[C@@H](N)CC(=O)O; NMeAbu = CC[C@H](NC)C(=O)O; NMeA = CN[C@@H](C)C(=O)O; Piperidide = C1CCN(*)CC1; Abu = CC[C@H](N)C(=O)O; βAla = NCCC(=O)O; Sar = CNCC(=O)O; tBu = CC(C)(C)*

Tests used:
[1] = Membrane permeability test using Caco-2 cells with preincubation; assay type: in vitro ADME; settings: Caco-2; preincubation 20 to 24 hours; Apical FaSSIF/HBSS pH 6.0, Basal HBSS 4% BSA pH 7.4; 180 minutes; read-out: Caco2 Papp
Protocol: (§1) The permeability coefficient (Caco-2 Papp (cm/sec)) is calculated using a numerical expression 1. [Expression 1] Papp = (1)/(C1 (0) × S) × (dQ)/(dt) [formula] dQ/dt represents the permeation rate of drug (the amount of drug appearing on the Basal side per unit time), S represents the total surface area of cells, and C1(0) represents the concentration of drug added on the Apical side.
(§2) Using a mixed medium of FaSSIF containing 1% DMSO and DMEM as the apical medium, and DMEM as the basal medium, Caco-2 cells and peptide compounds are preincubated for 20 to 24 hours under conditions of 5% CO2, 37°C, and 80 rpm. Afterward, the culture medium on the Apical side and the Basal side are aspirated and washed, the peptide compound was added to a FaSSIF/HBSS buffer solution containing 1% DMSO (1% DMSO) (pH 6.0) at the Apical side, a HBSS buffer solution containing 4% BSA (pH 7.4) was added to the Basal side, and measurement of membrane permeability is started. Each well is shaken under 5% CO2 at 37°C and 80 rpm, and at 180 minutes after the start of shaking, a sample on the Basal side is collected. The amount of peptide compounds in the sample was measured using LCMS, and the membrane permeability coefficient was calculated from the permeation amount (Table 7). When calculating the membrane permeability coefficient (Papp) from the permeation amount, the following expression can be used. Papp = (dQ)/(dt) × (1)/(C1 (0) × S) [formula]
(§3) dQ/dt represents the permeation rate of drug (the amount of drug appearing on the Basal side per unit time), C1(0) represents the concentration of drug added on the Apical side, and S represents the total surface area of cells.

Caco-2 cells = experiment: as above; assay type: in vitro ADME; settings: preincubation 20 to 24 hours; for Caco2 Papp (10^-6 cm/sec): Caco-2 cells, apical FaSSIF/HBSS 1% DMSO pH 6.0, basal HBSS 4% BSA pH 7.4, basal sample at 180 minutes
Protocol: as §1, §2, §3

[2] = Metabolic stability test: liver microsomal stability assay; assay type: in vitro ADME, mouse; settings: mouse liver microsomes 0.5 mg protein/mL, compound 1 µM; for microsomal CLint at 1 µM: male, pH 7.4, presence of NADPH, read-out: Mouse Hepatic Microsome CLh,int NADPH(+); for Mouse Hepatic Microsome CLh,int NADPH(-): absence of NADPH
Protocol: Under the presence and absence of NADPH, a microsome solution prepared to a concentration of 0.5 mg protein/mL using 100 mM phosphate buffer (pH 7.4) with mouse liver microsomes (male, Corning Incorporated, USA) and the compound at a concentration of 1 µM were subjected to a metabolic reaction for 22 minutes, 44 minutes, or 66 minutes. Protein removal processing was performed over time using acetonitrile, and the remaining amount of unchanged compound was analyzed using LCMS to calculate the intrinsic hepatic clearance (CLh, int) (Table 6).

Compound | Papp A→B [1] [×10⁻⁶ cm/s] | Caco2 Papp (10^-6 cm/sec) (Caco-2 cells) | microsomal CLint at 1 µM [2] [µL/min/mg] | Mouse Hepatic Microsome CLh,int NADPH(-) [2] [µL/min/mg Protein] | Caco2 Papp (Caco-2 cells; Apical FaSSIF/HBSS pH 6.0, Basal HBSS 4% BSA pH 7.4, 180 minutes)
CC[C@H](C)[C@H]1C(=O)N[C@@H](Cc2ccccc2)C(=O)N2CCC[C@H]2C(=O)N(C)[C@@H](CC(C)C)C(=O)N[C@@H](COC(C)(C)C)C(=O)N(C)[C@@H](Cc2ccccc2)C(=O)N[C@@H]([C@@H](C)O)C(=O)N(C)[C@@H](CC)C(=O)N2CCC[C@H]2C(=O)N(C)[C@@H](CC(C)C)C(=O)N(C)[C@@H](C(C)C)C(=O)N[C@H](C(=O)N2CCCCC2)CC(=O)N(C)CCCC(=O)N(C)[C@@H](CC(C)C)C(=O)N1C [pd001] ([NMeGABA][NMeL][NMeI]FP[NMeL]S(tBu)[NMeF]T[NMeAbu]P[NMeL][NMeV]D-Piperidide; lactam N-14) | 0.94 | 0.94 10^-6 cm/sec | 34.2 | 29.6 | 
CC[C@H](C)[C@@H]1NC(=O)[C@@H]2CCCN2C(=O)[C@H](CC(C)C)N(C)C(=O)[C@H](Cc2ccccc2)N(C)C(=O)[C@H]([C@@H](C)CC)N(C)C(=O)[C@H]([C@@H](C)O)NC(=O)[C@H](Cc2ccccc2)N(C)C(=O)[C@H](CC)N(C)C(=O)[C@H](C(C)C)NC(=O)[C@H](CC)N(C)C(=O)[C@H](CC(C)C)N(C)C(=O)[C@H](C)N(C)C(=O)C[C@@H](C(=O)N2CCCCC2)NC(=O)[C@H](C(C)C)N(C)C1=O [pd002] ([NMeA][NMeL][NMeAbu]V[NMeAbu][NMeF]T[NMeI][NMeF][NMeL]PI[NMeV]D-Piperidide; lactam N-14) | 0.39 | 0.39 10^-6 cm/sec | 34.2 | 30.1 | 
CC[C@H](C)[C@H]1C(=O)N[C@@H]([C@@H](C)O)C(=O)N(C)CC(=O)N(C)[C@@H](CC(C)C)C(=O)N(C)[C@@H](Cc2ccccc2)C(=O)N[C@H](C(=O)N2CCCCC2)CC(=O)N(C)[C@@H](C)C(=O)N[C@@H](CC(C)C)C(=O)N(C)[C@@H](Cc2ccccc2)C(=O)N(C)CCC(=O)N(C)[C@@H](CC(C)C)C(=O)N[C@@H](CC(C)C)C(=O)N(C)[C@@H](C)C(=O)N(C)[C@@H](CC)C(=O)N1C [pd003] ([NMeA]L[NMeF][NMeβAla][NMeL]L[NMeA][NMeAbu][NMeI]T[Sar][NMeL][NMeF]D-Piperidide; lactam N-14) | 0.27 | 0.27 10^-6 cm/sec | 17.9 | 19.0 | 
CC[C@H](C)[C@@H]1NC(=O)[C@H](C)N(C)C(=O)C[C@@H](C(=O)N2CCCCC2)NC(=O)[C@H](CC)N(C)C(=O)[C@H](COC(C)(C)C)NC(=O)[C@H](CC(C)C)N(C)C(=O)[C@H](C)N(C)C(=O)[C@H](CC(C)C)N(C)C(=O)[C@H](Cc2ccccc2)N(C)C(=O)CN(C)C(=O)[C@H]([C@@H](C)O)NC(=O)[C@H](CC(C)C)N(C)C(=O)[C@H](C(C)C)N(C)C(=O)[C@H](Cc2ccccc2)N(C)C1=O [pd004] ([NMeA]I[NMeF][NMeV][NMeL]T[Sar][NMeF][NMeL][NMeA][NMeL]S(tBu)[NMeAbu]D-Piperidide; lactam N-14) | 0.82 | 0.82 10^-6 cm/sec | 36.2 | 27.4 | 
CC[C@@H]1NC(=O)[C@H](C)N(C)C(=O)[C@H](CC(C)C)N(C)C(=O)[C@H]([C@@H](C)O)N(C)C(=O)[C@H](CC(C)C)N(C)C(=O)CCNC(=O)[C@H](Cc2ccccc2)N(C)C(=O)CN(C)C(=O)C[C@@H](C(=O)N2CCCCC2)NC(=O)[C@H](C(C)C)N(C)C(=O)[C@H](C)N(C)C(=O)[C@@H]2CCCN2C(=O)[C@H](C(C)C)NC(=O)[C@H](Cc2ccccc2)N(C)C1=O [pd005] ([Sar][NMeF][βAla][NMeL][NMeT][NMeL][NMeA][Abu][NMeF]VP[NMeA][NMeV]D-Piperidide; lactam N-14) | 0.05 | 0.05 10^-6 cm/sec | 1.4 | 1.1 | 
CC[C@@H]1NC(=O)[C@H](CC(C)C)N(C)C(=O)[C@H](CC(C)C)NC(=O)CN(C)C(=O)[C@H](C(C)C)NC(=O)[C@H](CC(C)C)N(C)C(=O)[C@H](C(C)C)NC(=O)[C@H](Cc2ccccc2)N(C)C(=O)[C@H](C)N(C)C(=O)[C@@H](C)NC(=O)C[C@@H](C)NC(=O)[C@H](C(C)C)N(C)C(=O)[C@H](CC)N(C)C(=O)[C@H](CCc2ccccc2)NC1=O [pd006] (cyclo([Abu][hPhe][NMeAbu][NMeV][d(β3hA)][dA][NMeA][NMeF]V[NMeL]V[Sar]L[NMeL])) | < 0.11 | <0.11 10^-6 cm/sec | 51.4 | 30.0 | 
CC[C@H](C)[C@@H]1NC(=O)[C@H](CC(C)C)N(C)C(=O)[C@H](CC(C)C)NC(=O)[C@H](C)N(C)C(=O)C[C@@H](C)NC(=O)[C@H](CC(C)C)NC(=O)[C@H](CC(C)C)N(C)C(=O)CN(C)C(=O)[C@H](C(C)C)NC(=O)[C@H]([C@@H](C)CC)N(C)C(=O)[C@H](COC(C)(C)C)NC(=O)[C@H](CC(C)C)N(C)C(=O)CCNC(=O)[C@H](Cc2ccccc2)N(C)C1=O [pd007] (cyclo(I[NMeF][βAla][NMeL]S(tBu)[NMeI]V[Sar][NMeL]L[d(β3hA)][NMeA]L[NMeL])) | 0.11 | 0.11 10^-6 cm/sec | 40.8 | 34.9 | 
CC[C@@H]1NC(=O)[C@H](Cc2ccccc2)N(C)C(=O)[C@H](COC(C)(C)C)NC(=O)[C@H](CC(C)C)N(C)C(=O)[C@H](C(C)C)NC(=O)CN(C)C(=O)[C@H]([C@@H](C)O)NC(=O)[C@H](CC(C)C)N(C)C(=O)[C@H](C(C)C)NC(=O)[C@H](Cc2ccccc2)N(C)C(=O)[C@H](C)N(C)C(=O)[C@@H](C)NC(=O)C[C@@H](C)NC(=O)[C@H](C(C)C)N(C)C1=O [pd008] (cyclo([Abu][NMeV][d(β3hA)][dA][NMeA][NMeF]V[NMeL]T[Sar]V[NMeL]S(tBu)[NMeF])) | 0.04 | 0.04 10^-6 cm/sec | 13.4 | 11.8 | 
CC[C@H](C)[C@@H]1NC(=O)[C@H](CC(C)C)N(C)C(=O)[C@H](CC(C)C)NC(=O)[C@H](C)N(C)C(=O)C[C@@H](C)NC(=O)CN(C)C(=O)[C@H](CC(C)C)N(C)C(=O)[C@H]([C@@H](C)O)NC(=O)[C@H](C(C)C)NC(=O)[C@H]([C@@H](C)CC)N(C)C(=O)[C@H](COC(C)(C)C)NC(=O)[C@H](CC(C)C)N(C)C(=O)[C@H](C)NC(=O)[C@H](Cc2ccccc2)N(C)C1=O [pd009] (cyclo(A[NMeL]S(tBu)[NMeI]VT[NMeL][Sar][d(β3hA)][NMeA]L[NMeL]I[NMeF])) | 0.13 | 0.13 10^-6 cm/sec | 38.9 | 42.4 | 
CC[C@@H]1NC(=O)[C@H](CC(C)C)N(C)C(=O)[C@H](C)NC(=O)CN(C)C(=O)[C@H](CC(C)C)N(C)C(=O)CCN(C)C(=O)[C@H](Cc2ccccc2)N(C)C(=O)[C@H]([C@@H](C)CC)NC(=O)[C@H]([C@@H](C)CC)N(C)C(=O)[C@@H](C)NC(=O)C[C@@H](C(=O)N2CCCCC2)N(C)C(=O)[C@H](Cc2ccccc2)N(C)C(=O)[C@H](C(C)C)NC(=O)[C@H](C)N(C)C1=O [pd076] ([dA][NMeI]I[NMeF][NMeβAla][NMeL][Sar]A[NMeL][Abu][NMeA]V[NMeF][NMeD]-Piperidide; lactam N-14) |  | <0.10 10^-6 cm/sec | 10.9 | 18.2 | <0.10 10^-6 cm/sec
